From PubChem BioAssay AID2060496 (Molecular Pharmacology Branch, DTP, NCI, 2025)

Test system: 276233-004-R-J1-PDC complex spheroid viability
Test: Anticancer human tumor 276233-004-R-J1-PDC patient-derived colon adenocarcinoma cell line growth inhibition [GQUAD]
Conditions: for IC50: curve of first compound; for viability, T/C: stronger effect = lower value
Outline: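 Multi-cell-type spheroids of tumor cells with HUVEC and mesenchymal stem cells, treated with drug combinations. Concentrations descend in half-log steps from near clinical Cmax, or from 10 microM where Cmax is unknown; viability read-out.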

[1] = second compound 0.0316 µM, first compound 0.0316 µM
[2] = second compound 0.0316 µM, first compound 0.1 µM
[3] = second compound 0.0316 µM, first compound 0.316 µM
[4] = second compound 0.0316 µM, first compound 1 µM
[5] = second compound 0.0316 µM, first compound 3.16 µM
[6] = second compound 0.0316 µM, first compound 10 µM
[7] = second compound 0.1 µM, first compound 0.0316 µM
[8] = second compound 0.1 µM, first compound 0.1 µM
[9] = second compound 0.1 µM, first compound 0.316 µM
[10] = second compound 0.1 µM, first compound 1 µM
[11] = second compound 0.1 µM, first compound 3.16 µM
[12] = second compound 0.1 µM, first compound 10 µM
[13] = second compound 0.316 µM, first compound 0.0316 µM
[14] = second compound 0.316 µM, first compound 0.1 µM
[15] = second compound 0.316 µM, first compound 0.316 µM
[16] = second compound 0.316 µM, first compound 1 µM
[17] = second compound 0.316 µM, first compound 3.16 µM
[18] = second compound 0.316 µM, first compound 10 µM
[19] = second compound 1 µM, first compound 0.0316 µM
[20] = second compound 1 µM, first compound 0.1 µM
[21] = second compound 1 µM, first compound 0.316 µM
[22] = second compound 1 µM, first compound 1 µM
[23] = second compound 1 µM, first compound 3.16 µM
[24] = second compound 1 µM, first compound 10 µM
[25] = second compound 3.16 µM, first compound 0.0316 µM
[26] = second compound 3.16 µM, first compound 0.1 µM
[27] = second compound 3.16 µM, first compound 0.316 µM
[28] = second compound 3.16 µM, first compound 1 µM
[29] = second compound 3.16 µM, first compound 3.16 µM
[30] = second compound 3.16 µM, first compound 10 µM
[31] = second compound 10 µM, first compound 0.0316 µM
[32] = second compound 10 µM, first compound 0.1 µM
[33] = second compound 10 µM, first compound 0.316 µM
[34] = second compound 10 µM, first compound 1 µM
[35] = second compound 10 µM, first compound 3.16 µM
[36] = second compound 10 µM, first compound 10 µM
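Note: spheroids exposed to drugs for seven days.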
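Throughout, for viability, T/C: 100% = DMSO vehicle control viability.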

For `COc1cccc2c1C(=O)c1c(O)c3c(c(O)c1C2=O)CC(O)(C(=O)CO)CC3OC1CC(N)C(O)C(C)O1` (stereo unspecified) + Cc1cnc(CNC(=O)c2c(=O)c3ccc(N4CCCN(C)CC4)nc3n3c2sc2ccccc23)cn1, the IC50 (second compound 0.0316 µM) was 9690 nM, the IC50 (second compound 0.1 µM) was 6820 nM and the IC50 (second compound 0.316 µM) was 3530 nM. For the same compound, the IC50 (second compound 1 µM) was 2330 nM, the IC50 (second compound 3.16 µM) was 2160 nM and the IC50 (second compound 10 µM) was 2030 nM. The viability, T/C [1] was 81.5%, the viability, T/C [2] was 87.3% and the viability, T/C [3] was 86%. The viability, T/C [4] was 67.1%, the viability, T/C [5] was 79.6% and the viability, T/C [6] was 48.6%. It also gave a viability, T/C [7] of 79%, a viability, T/C [8] of 94.9% and a viability, T/C [9] of 72.2%. For the same compound, the viability, T/C [10] was 87.9%, the viability, T/C [11] was 66.3% and the viability, T/C [12] was 41.9%. For the same compound, the viability, T/C [13] was 80.4%, the viability, T/C [14] was 92.3% and the viability, T/C [15] was 87.2%. It also gave a viability, T/C [16] of 78.3%, a viability, T/C [17] of 51.8% and a viability, T/C [18] of 35%. It also gave a viability, T/C [19] of 78%, a viability, T/C [20] of 95.8% and a viability, T/C [21] of 83.1%. The viability, T/C [22] was 73%, the viability, T/C [23] was 41.8% and the viability, T/C [24] was 24.4%. It also gave a viability, T/C [25] of 78.1%, a viability, T/C [26] of 78.8% and a viability, T/C [27] of 77.4%. For the same compound, the viability, T/C [28] was 60.4%, the viability, T/C [29] was 44.5% and the viability, T/C [30] was 13%. It also gave a viability, T/C [31] of 73.2%, a viability, T/C [32] of 60.6% and a viability, T/C [33] of 64.5%. For the same compound, the viability, T/C [34] was 69%, the viability, T/C [35] was 39.4% and the viability, T/C [36] was 13.5%.
In the case of `Cc1cccc(N(C)C(=O)C2C(O)CCN2c2nc(C)cc(C(F)(F)F)c2C#N)c1` (stereo unspecified) + Cc1cnc(CNC(=O)c2c(=O)c3ccc(N4CCCN(C)CC4)nc3n3c2sc2ccccc23)cn1, the IC50 (second compound 0.0316 µM) is reported as greater than 10000 nM, the IC50 (second compound 0.1 µM) is reported as greater than 10000 nM and the IC50 (second compound 0.316 µM) is reported as greater than 10000 nM. It also gave an IC50 (second compound 1 µM) greater than 10000 nM, an IC50 (second compound 3.16 µM) greater than 10000 nM and an IC50 (second compound 10 µM) greater than 10000 nM. For the same compound, the viability, T/C [1] was 89.8%, the viability, T/C [2] was 75.8% and the viability, T/C [3] was 90.8%. It also gave a viability, T/C [4] of 84.7%, a viability, T/C [5] of 98.8% and a viability, T/C [6] of 92.8%. The viability, T/C [7] was 75.4%, the viability, T/C [8] was 78.2% and the viability, T/C [9] was 80.1%. It also gave a viability, T/C [10] of 88.6%, a viability, T/C [11] of 80.2% and a viability, T/C [12] of 82.5%. For the same compound, the viability, T/C [13] was 77.2%, the viability, T/C [14] was 72.1% and the viability, T/C [15] was 81.9%. For the same compound, the viability, T/C [16] was 76.4%, the viability, T/C [17] was 86.4% and the viability, T/C [18] was 84.8%. It also gave a viability, T/C [19] of 73.5%, a viability, T/C [20] of 79.1% and a viability, T/C [21] of 85.6%. The viability, T/C [22] was 79.5%, the viability, T/C [23] was 77.6% and the viability, T/C [24] was 87.4%. For the same compound, the viability, T/C [25] was 65.7%, the viability, T/C [26] was 69.8% and the viability, T/C [27] was 70%. For the same compound, the viability, T/C [28] was 56.6%, the viability, T/C [29] was 79% and the viability, T/C [30] was 71%. It also gave a viability, T/C [31] of 69.9%, a viability, T/C [32] of 63.3% and a viability, T/C [33] of 73.9%. The viability, T/C [34] was 69%, the viability, T/C [35] was 66.5% and the viability, T/C [36] was 79.3%.
`Cn1ncnc1[C@H]1c2n[nH]c(=O)c3cc(F)cc(c23)N[C@@H]1c1ccc(F)cc1` + Cc1cnc(CNC(=O)c2c(=O)c3ccc(N4CCCN(C)CC4)nc3n3c2sc2ccccc23)cn1 was tested, and the IC50 (second compound 0.0316 µM) was greater than 316 nM, the IC50 (second compound 0.1 µM) was greater than 316 nM and the IC50 (second compound 0.316 µM) was greater than 316 nM. It also gave an IC50 (second compound 1 µM) greater than 316 nM, an IC50 (second compound 3.16 µM) greater than 316 nM and an IC50 (second compound 10 µM) greater than 316 nM. The viability, T/C (second compound 0.0316 µM, first compound 0.000999 µM) was 94.8%, the viability, T/C (second compound 0.0316 µM, first compound 0.00316 µM) was 72.2% and the viability, T/C (second compound 0.0316 µM, first compound 0.00999 µM) was 79.9%. It also gave a viability, T/C [1] of 82.6%, a viability, T/C (second compound 0.0316 µM, first compound 0.0999 µM) of 82.9% and a viability, T/C [3] of 83.8%. For the same compound, the viability, T/C (second compound 0.1 µM, first compound 0.000999 µM) was 92.2%, the viability, T/C (second compound 0.1 µM, first compound 0.00316 µM) was 85.1% and the viability, T/C (second compound 0.1 µM, first compound 0.00999 µM) was 73%. For the same compound, the viability, T/C [7] was 78.3%, the viability, T/C (second compound 0.1 µM, first compound 0.0999 µM) was 89.2% and the viability, T/C [9] was 87.3%. The viability, T/C (second compound 0.316 µM, first compound 0.000999 µM) was 78.6%, the viability, T/C (second compound 0.316 µM, first compound 0.00316 µM) was 91.9% and the viability, T/C (second compound 0.316 µM, first compound 0.00999 µM) was 86.4%. For the same compound, the viability, T/C [13] was 82.8%, the viability, T/C (second compound 0.316 µM, first compound 0.0999 µM) was 80.8% and the viability, T/C [15] was 78.2%. It also gave a viability, T/C (second compound 1 µM, first compound 0.000999 µM) of 70.3%, a viability, T/C (second compound 1 µM, first compound 0.00316 µM) of 65.9% and a viability, T/C (second compound 1 µM, first compound 0.00999 µM) of 80.1%. The viability, T/C [19] was 74.4%, the viability, T/C (second compound 1 µM, first compound 0.0999 µM) was 88.5% and the viability, T/C [21] was 69.2%. The viability, T/C (second compound 3.16 µM, first compound 0.000999 µM) was 69.5%, the viability, T/C (second compound 3.16 µM, first compound 0.00316 µM) was 71.5% and the viability, T/C (second compound 3.16 µM, first compound 0.00999 µM) was 61.2%. It also gave a viability, T/C [25] of 67.5%, a viability, T/C (second compound 3.16 µM, first compound 0.0999 µM) of 70.7% and a viability, T/C [27] of 62.8%. The viability, T/C (second compound 10 µM, first compound 0.000999 µM) was 68.4%, the viability, T/C (second compound 10 µM, first compound 0.00316 µM) was 59.1% and the viability, T/C (second compound 10 µM, first compound 0.00999 µM) was 64.8%. It also gave a viability, T/C [31] of 71.8%, a viability, T/C (second compound 10 µM, first compound 0.0999 µM) of 66.2% and a viability, T/C [33] of 63.5%.
